The record followed here is patent US5428029A, “Vitamin D3 fluorinated analogs” (Hoffmann-La Roche Inc., priority 1993, dated 1995).

Where two headings read alike, the source gives them in different places.

The test system of one experiment is T47-D cells. The experiment in a line: Tetrazolium based MTT assay, inhibition of cell growth, T47-D. As to conditions: Homo sapiens, T47D. The procedure:
(§1) TETRAZOLIUM BASED MTT ASSAY
T47-D (breast ductal carcinoma) were grown in RPMI-1640 medium supplemented with 10 μg/ml bovine insulin and 10% fetal bovine serum (FBS).
(§2) Cells were grown in appropriate medium to late log phase (about 80% confluency). T47-D or MCF-7 cells were then trypsinized and seeded at 4,000 or 2,000 cells/well, respectively.
(§3) Tetrazolium Based MTT Assay:
(§4) At 24 hours post seeding, serial dilutions of ethanol-solubilized drugs are prepared in the same medium and added to triplicate wells at a final concentration of 1,000 to 0.1 nM and 0.1% ethanol. On days 3 to 7 post drug addition, 50 μl of a 5 mg/ml MTT solution (3-(4,5-dimethylthiazol-2-yl)-2,5-diphenyl tetrazolium bromide in phosphate-buffered saline) is added to each well and incubation is continued at 37° C. for 2.5 hours. The plates are then spun briefly by centrifugation at 800 xg for 5 minutes, medium is aspirated from wells, and 50 μl ETOH/well is added to dissolve the formazan formed during the incubation period with MTT. After a 15 minute shaking, the optical density is determined for each well in an automatic plate reader at 570 and 660 nm. Percent inhibition of cell growth is calculated by comparing optical densities of cells treated with test compounds to those of cells treated only with 0.1% ethanol. IC50 values are determined based on the Reed and Muench formula (Am. J. Hyg. 27:493-497 1938) and the results of two independent experiments are presented below: […]

For the next experiment, the system named is MCF-7 cells. The experiment can be described thus: Tetrazolium based MTT assay, inhibition of cell growth, MCF-7. Particulars: Homo sapiens, MCF7, Exp. 2. The procedure: as §1
MCF-7 (breast adenocarcinoma) were grown in MEM (Eagle) supplemented with non-essential amino acids, 1 mM sodium pyruvate, […] bovine insulin and 10% FBS
as §2, §3, §4
(Tetrazolium dyes change colour on reduction, which living cells bring about.)

Experiment [1] deals with human neonatal keratinocytes. The experiment in a line: Human Keratinocyte Antiproliferative Assay. As to conditions: for IC50: read-out: average ED50 (Dose that would obtain 50% of the number of cells as compared to the control). Type of experiment: cell-based. The protocol: Human Keratinocyte Antiproliferative Assay
Cultures were obtained from neonatal foreskin epithelial keratinocytes using standard procedures.
Human neonatal foreskins were collected by circumcision and placed into tubes containing Dulbecco's minimum essential Media (DMEM) with 10% serum. Upon arrival at the laboratory, they were mechanically trimmed of excess dermis, and treated with a solution of trypsin/ethylenediamine tetraacetic acid (EDTA) (0.05%/0.02%) at 4° C. overnight. The epidermis was stripped from the dermis, agitated in buffered saline to remove basal keratinocytes and the stratum corneum later removed. […] The cultures are incubated in humidified chambers with 5% CO2 at 37° C. with refeeding fresh media 2 to 3 times per week.
Antiproliferation Assay Protocol:
Approximately twenty-four hours after passage, the cells were refed with fresh KGM media supplemented to 1.5 mM CaCl2 that contains test compound or vehicle. Solutions of test compounds were prepared as follows: 1 milligram quantities were received in amber glass vials and stored at -20° C. Sufficient 100% ethanol was added directly to vials to obtain a millimolar solution that was subsequently aliquoted into small amber vials, overlayed with argon gas and stored at -20° C. Each stock solution was thawed once, used and discarded. Stock solutions were used within 4 to 6 weeks. Aliquots from the stock solution were diluted directly into medium and then serially diluted from micromolar to picomolar concentrations. […] Control wells are supplemented with vehicle alone at the highest concentration such as 0.1% ethanol. At the termination of the experiment prior to the cultures reaching confluency, the cells were enumerated by the following procedure. Dishes were washed with phosphate buffered saline, and then incubated with trypsin/EDTA solution for 30 minutes. Cells were suspended and an aliquot placed into isotonic buffered saline and counted on an electronic particle counter (Coulter Counter). The counter was periodically calibrated for the correct size of keratinocytes. Each well was counted in triplicate.

For the next experiment, the system named is HL-60 tumor cell line. The experiment in a line: HL-60 Differentiation Assay. Particulars: 4 days; for EC50: Homo sapiens, 96 h, HL-60 differentiation, read-out: Approximate ED50. Type of experiment: cell-based, human. The procedure: HL-60 Differentiation Assay:
The HL-60 tumor cell line was originally derived from a patient with promyleocytic leukemia and purchased from American Type Culture Collection (ATCC CCL240). […] For experimentation, cells were seeded at 0.9×10^6 cells per 25 cm^2 flask in medium supplemented with 0.25 mM sodium ascorbate. […] All compounds were handled in the following manner. Stock solutions were made of 10^-3 M solutions in ethanol and stored in amber vials overlaid with argon at -20° C. Stock solutions were diluted into medium at concentrations indicated. All flasks were supplemented with vehicle at a concentration of 0.1% ethanol. Control flasks were supplemented with vehicle alone at a concentration of 0.1% ethanol. Flasks were incubated upright for 4 days in 5% CO 2 at 37° C. On day 4, a 1 ml aliquot of cells was removed from the flasks, centrifuged for about 10 minutes, the media removed and the cells resuspended in a 0.2 ml of solution of nitroblue tetrazolium/phorbol 12 myristate 13-acetate (NBT/TPA) in media prepared on the day of enumeration as follows. Nitroblue tetrazolium was dissolved in media at 1 mg/ml. To this solution was added TPA to a final concentration of 100 ng/ml. This solution was kept in a covered vial on ice. The cells were suspended and incubated at 37° C. for 30 min. prior to transferring to ice. An aliquot was removed and the cells are counted using a hemocytometer. Cells without pigmented granules are judged to be undifferentiated while those containing blue black formazan (indicating conversion of NBT) granules were scored as differentiated. Results are expressed as percent differentiated cells by calculating the ratio of the number of dark cells per total number of cells counted.

The subject of another experiment is sebaceous cells. The experiment can be described thus: Inhibition of proliferation of sebaceous cells in vitro. Type of experiment: cell-based. As to conditions: Homo sapiens, read-out: ED50 (amount of compound necessary to inhibit the proliferation of the sebaceous cells by 50%). The procedure:
Sebaceous cells were isolated from adult human sebaceous glands, derived from facial skin removed during cosmetic surgery. This method is described in an article by Doran et al. in J. Invest. Dermatol. 96:341-348 (1991).
The cells were cultured in Iscove's medium containing 10% fetal calf serum and 4 μg/ml dexamethasone on a layer of growth-arrested 3T3 mouse fibroblasts.
Cells were plated in medium without the test compound and then given the compound in fresh medium 24-48 hours after the initial plating. The cultures were given fresh medium, containing the test compound, every 48 hours. On the day of harvesting, the cultures were rinsed with 0.03% ethylenediamine tetraacetic acid (EDTA) in phosphate buffered saline (PBS), to remove only the 3T3 fibroblasts. The remaining sebocyte colonies were incubated in 0.05% trypsin/0.03% EDTA to create a single cell suspension of sebocytes. The cells were diluted, mixed vigorously to maintain a single cell suspension, and counted in a hemocytometer.
All compounds were handled in the following manner. Stock solutions were made up as 10^-2 M solutions in degassed 100% ethanol and stored at -20° C. in the dark. Solutions were never used after storage of more than a month. During experimental use the solutions, which had been aliquoted, were thawed once and used by diluting directly into complete medium to the appropriate concentration. […]

[2] abbreviates: Homo sapiens, Keratinocyte, read-out: % of Control.

Regarding `C[C@H](C/C=C/C(O)(C(F)(F)F)C(F)(F)F)C1=CC[C@H]2/C(=C/C=C3C[C@@H](O)C[C@H](O)C3)CCC[C@]12C` [1,25-Dihydroxy-16,23E-diene-26,27-hexafluoro-19-norcholecalciferol], the IC50 in the experiment on T47-D cells (Exp. 1) was determined as 0.26 nM; with T47-D cells (Exp. 2), 2.2 nM; in the experiment with MCF-7 cells it was 0.15 nM.

As for `C=C1/C(=C\C=C2/CCC[C@]3(C)C([C@H](C)C/C=C/C(O)(C(F)(F)F)C(F)(F)F)=CC[C@@H]23)C[C@@H](O)C[C@@H]1O` [1,25-Dihydroxy-16,23E-diene-26,27-hexafluorocholecalciferol], the IC50 in the experiment with T47-D cells (Exp. 1) was < 0.1 nM; in the experiment with T47-D cells (Exp. 2) it was 0.9 nM; in the experiment on MCF-7 cells it was 0.05 nM; in experiment [1] (Keratinocyte, human keratinocytes), 2 nM; with sebaceous cells (compared to vehicle treated control culture), < 1 nM. Further, the “Avg Cell No.” value in experiment [1] (Dose 0.0001 nM) was determined as 4.57E+05; in experiment [1] (Dose 0.001 nM) it was 4.41E+05; in experiment [1] (Dose 0.01 nM), 5.42E+05; in experiment [1] (Dose 0.1 nM) it was 5.03E+05; in experiment [1] (Dose 1.0 nM) it was 2.87E+05; in experiment [1] (Dose 10 nM), 2.29E+05. In addition, the “Avg Cell No.” value is listed as 2.03E+05 in experiment [1] (Dose 100 nM) and 3.04E+05 in experiment [1] (Dose 1000 nM). The activity at 100 fM in experiment [1] (Homo sapiens, Keratinocyte, Dose 0.0001 nM, read-out: % of Control) worked out at 93.7%. Besides, the activity at 1 pM in experiment [1] (Homo sapiens, Keratinocyte, Dose 0.001 nM, read-out: % of Control) came to 90.3%. Moreover, the activity at 10 pM in experiment [1] (Homo sapiens, Keratinocyte, Dose 0.01 nM, read-out: % of Control) was found to be 111%. In addition, in experiment [1] (Homo sapiens, Keratinocyte, Dose 0.1 nM, read-out: % of Control), the activity at 0.0001 µM came to 103%. The activity at 0.001 µM in experiment [1] (Homo sapiens, Keratinocyte, Dose 1.0 nM, read-out: % of Control) is 58.7%. Moreover, the activity at 0.01 µM in experiment [1] (Homo sapiens, Keratinocyte, Dose 10 nM, read-out: % of Control) amounted to 47%. In addition, in experiment [1] (Homo sapiens, Keratinocyte, Dose 100 nM, read-out: % of Control), the activity at 0.1 µM turned out to be 41.6%. Besides, in experiment [1] (Homo sapiens, Keratinocyte, Dose 1000 nM, read-out: % of Control), the activity at 1 µM was determined as 6.23%. In addition, the “Percent Positive Cells” value with HL-60 tumor cell line (Dose 0.1 nM) was 6.0%; in the experiment on HL-60 tumor cell line (Dose 0.3 nM) it was 30.5%; with HL-60 tumor cell line (Dose 1.0 nM) it was 63.0%; in the experiment on HL-60 tumor cell line (Dose 10.0 nM) it was 79.0%; in the experiment with HL-60 tumor cell line (Dose 100.0 nM), 89.5%. Moreover, the EC50 with HL-60 tumor cell line is ~0.6 nM.

In turn, `C=C1/C(=C\C=C2/CCC[C@]3(C)C([C@H](C)C/C=C/C(O)(C(F)(F)F)C(F)(F)F)=CC[C@@H]23)C[C@@H](O)C[C@@H]1F` [1α-Fluoro-25-hydroxy-16,23E-diene-26,27-hexafluorocholecalciferol] returned an IC50 in the experiment with MCF-7 cells of 0.38 nM.

Turning to `C=C1/C(=C\C=C2/CCC[C@]3(C)[C@@H]([C@H](C)CCCC(C)(C)O)CC[C@@H]23)C[C@@H](O)C[C@@H]1O` [1,25-dihydroxy-cholecalciferol, 1,25-dihydroxycholecalciferol, reference compound], the “Avg Cell No.” value came out at 4.60E+05 in experiment [1] (Dose 10 nM); 3.90E+05 in experiment [1] (Dose 30 nM); 3.12E+05 in experiment [1] (Dose 100 nM); 2.51E+05 in experiment [1] (Dose 300 nM); 7.19E+05 in experiment [1] (Dose 1000 nM). For the same compound, the activity at 0.01 µM in experiment [1] (setting [2]) is 94.3%. The activity at 0.03 µM in experiment [1] (setting [2]) worked out at 79.9%. Further, the activity at 0.1 µM in experiment [1] (setting [2]) was 64%. Moreover, in experiment [1] (setting [2]), the activity at 0.3 µM was 51.4%. For the same compound, the activity at 1 µM in experiment [1] (setting [2]) was 14.7%. Also, the IC50 in experiment [1] (Homo sapiens, Keratinocyte) was 300 nM; with sebaceous cells, 50 nM. Besides, the “Percent Positive Cells” value stood at 2.0% with HL-60 tumor cell line (Dose 0.1 nM); 5.0% in the experiment on HL-60 tumor cell line (Dose 0.3 nM); 3.5% in the experiment with HL-60 tumor cell line (Dose 1.0 nM); 26.0% in the experiment with HL-60 tumor cell line (Dose 10.0 nM); 84.0% with HL-60 tumor cell line (Dose 100.0 nM). Besides, the EC50 in the experiment with HL-60 tumor cell line is ~25 nM.

As for `C=C1/C(=C\C=C2/CCC[C@]3(C)C([C@H](C)CC#CC(O)(C(F)(F)F)C(F)(F)F)=CC[C@@H]23)C[C@@H](O)C[C@@H]1O` [1,25-dihydroxy-16-ene-23 yne-26,27-hexafluoro-cholecalciferol, reference compound], the figures for the IC50 in the experiment on T47-D cells (Exp. 1), in the experiment with T47-D cells (Exp. 2) and with MCF-7 cells were 0.63 nM, 0.95 nM and 0.42 nM, respectively.
